A short description of data set [1]: Induction of apoptosis in human EPP85-181P cells assessed as cell accumulation at apoptotic phase after 24 hrs by comet assay. The data set is classed as functional.
The nature of data set [2]: Cytotoxicity against human EPG85-257P cells after 24 hrs by SRB method. The data set is classed as functional, cell-based.
A short description of data set [3]: Induction of apoptosis in human EPG85-257P cells assessed as cell accumulation at apoptotic phase after 24 hrs by comet assay. Type of data set: functional.
Data set [4] can be described thus: Induction of apoptosis in human EPP85-181P cells assessed as normal cells after 24 hrs by comet assay. Type of data set: functional.
Data set [5] in a line: Cytotoxicity against human EPP85-181P cells after 24 hrs by SRB method. Type of data set: functional, cell-based.
Data set [6] can be described thus: Aqueous solubility in DMSO solution at 1 mg. The data set is classed as physicochemical.
Data set [7] can be described thus: Induction of apoptosis in human EPG85-257P cells assessed as normal cells after 24 hrs by comet assay. The data set is classed as functional.
A short description of data set [8]: Cytotoxicity against daunorubicin-resistant human EPG85-257RDB cells after 24 hrs by SRB method. Type of data set: functional, cell-based.
Data set [9] in a line: Cytotoxicity against daunorubicin-resistant human EPP85-181RDB cells after 24 hrs by SRB method. The data set is classed as functional, cell-based. In general terms: In SRB staining, fixed cells bind dye roughly in proportion to their protein.
Data set [10] in a line: Chemical stability in 0.02M phosphatre buffer of pH 7.4 after 6 days by RP-HPLC. Type of data set: physicochemical. To be noted: pH 7.4, 144 h.

Each structure is given as a SMILES string. Where only a bound is given, the exact number is not on record here.

As a reminder, the IC50 is the concentration needed to halve the response being measured. A low value points to greater potency in that assay.

Regarding `C=C(C)[C@@H]1CC[C@]2(C(=O)O)CC[C@]3(C)[C@H](CC[C@@H]4[C@@]5(C)CC[C@H](O)C(C)(C)[C@@H]5CC[C@]43C)[C@@H]12` [BETULINIC ACID], the Activity is reported as 16% in data set [1], 4% in data set [3], 84% in data set [4] and 96% in data set [7]. In addition, the IC50 in [2] was 42 µM; in data set [5], 32 µM; in data set [8] it was greater than 50 µM; in data set [9], greater than 50 µM. Besides, the solubility result in data set [6] is given as “Soluble”.

As for `C=C(C)[C@@H]1CC[C@]2(COC(=O)CN)CC[C@]3(C)[C@H](CC[C@@H]4[C@@]5(C)CC[C@H](O)C(C)(C)[C@@H]5CC[C@]43C)[C@@H]12`, the Activity in [1] is 1.4%; in [3] it was 9.8%; in data set [4], 98.6%; in data set [7], 90.2%. The IC50 in [2], in [5], in data set [8] and in data set [9] was greater than 50 µM each time. Besides, in [6], the solubility result is recorded as “Soluble”.

Regarding `C=C(C)[C@@H]1CC[C@]2(COC(=O)CN)CC[C@]3(C)[C@H](CC[C@@H]4[C@@]5(C)CC[C@H](OC(=O)CN)C(C)(C)[C@@H]5CC[C@]43C)[C@@H]12`, the Activity in data set [1] was 0.5%; in data set [4], 99.5%. In addition, the IC50 in data set [2], in data set [5], in data set [8] and in data set [9] was greater than 50 µM in each case. In addition, the solubility result in data set [6] was “Soluble”.

Take `C=C(C)[C@@H]1CC[C@]2(C(=O)O)CC[C@]3(C)[C@H](CC[C@@H]4[C@@]5(C)CC[C@H](OC(=O)[C@@H](N)Cc6ccccc6)C(C)(C)[C@@H]5CC[C@]43C)[C@@H]12`: the Activity in data set [1] stood at 3.1%; in [3], 2.5%; in [4] it was 96.9%; in data set [7], 97.5%. Also, the IC50 in data set [2], in data set [5], in data set [8] and in [9] was greater than 50 µM each time. In data set [6], the solubility result was “Soluble”.

`C=C(C)[C@@H]1CC[C@]2(C(=O)O)CC[C@]3(C)[C@H](CC[C@@H]4[C@@]5(C)CC[C@H](OC(=O)[C@@H](N)CCCN)C(C)(C)[C@@H]5CC[C@]43C)[C@@H]12`: the Activity was determined as 99% in data set [1] and 1% in data set [4]. Besides, the IC50 is 9.7 µM in [2], 14 µM in data set [5], greater than 50 µM in [8] and greater than 50 µM in data set [9]. In data set [6], the solubility entry was “Soluble”.

As to `C=C(C)[C@@H]1CC[C@]2(COC(=O)[C@H](C)N)CC[C@]3(C)[C@H](CC[C@@H]4[C@@]5(C)CC[C@H](O)C(C)(C)[C@@H]5CC[C@]43C)[C@@H]12`, the Activity in data set [1] stood at 5.2%; in data set [3] it was 42%; in data set [4], 94%; in data set [7] it was 58%. The IC50 in [2] is 38 µM; in data set [5], greater than 50 µM; in data set [8], greater than 50 µM; in [9], greater than 50 µM. For the same compound, the solubility entry in data set [6] was “Soluble”.

Take `C=C(C)[C@@H]1CC[C@]2(COC(=O)[C@H](C)N)CC[C@]3(C)[C@H](CC[C@@H]4[C@@]5(C)CC[C@H](OC(=O)[C@H](C)N)C(C)(C)[C@@H]5CC[C@]43C)[C@@H]12`: the Activity turned out to be 100% in data set [1], 100% in data set [3], 0% in data set [4] and 0% in data set [7]. Also, the IC50 in data set [2] is 17 µM; in data set [5], 4.6 µM; in data set [8] it was greater than 50 µM; in data set [9], 21 µM. Further, the solubility entry in data set [6] was “Soluble”.

`C=C(C)[C@@H]1CC[C@]2(CO)CC[C@]3(C)[C@H](CC[C@@H]4[C@@]5(C)CC[C@H](O)C(C)(C)[C@@H]5CC[C@]43C)[C@@H]12` [BETULIN]: the Activity was determined as 2% in [1], 0.5% in [3], 98% in data set [4] and 99.5% in data set [7]. Moreover, the IC50 in data set [2] was 26 µM; in data set [5] it was greater than 50 µM; in data set [8], greater than 50 µM; in data set [9], 46 µM. In data set [6], the solubility result is listed as “Insoluble”.

Turning to `C=C(C)[C@@H]1CC[C@]2(C(=O)O)CC[C@]3(C)[C@H](CC[C@@H]4[C@@]5(C)CC[C@H](OC(=O)[C@H](C)N)C(C)(C)[C@@H]5CC[C@]43C)[C@@H]12`, the Activity in data set [1] was 25.9%; in data set [3] it was 1.4%; in data set [4], 74.1%; in data set [7], 98.6%. The IC50 in data set [2] was 48 µM; in data set [5] it was greater than 50 µM; in [8] it was greater than 50 µM; in data set [9], greater than 50 µM. Also, the solubility entry in data set [6] is “Soluble”.

Regarding `C=C(C)[C@@H]1CC[C@]2(COC(=O)[C@@H](N)CCSC)CC[C@]3(C)[C@H](CC[C@@H]4[C@@]5(C)CC[C@H](OC(=O)[C@@H](N)CCSC)C(C)(C)[C@@H]5CC[C@]43C)[C@@H]12`, the Activity was 24.7% in [1], 15.1% in data set [3], 75.3% in data set [4] and 84.9% in data set [7]. The IC50 was 31 µM in [2], 22 µM in [5], greater than 50 µM in data set [8] and greater than 50 µM in data set [9]. The solubility entry in data set [6] is reported as “Soluble”.

Consider `C=C(C)[C@@H]1CC[C@]2(C(=O)O)CC[C@]3(C)[C@H](CC[C@@H]4[C@@]5(C)CC[C@H](OC(=O)[C@@H](N)CC)C(C)(C)[C@@H]5CC[C@]43C)[C@@H]12`, for which the Activity in data set [1] came out at 69.6%; in data set [3], 1.7%; in [4] it was 30.4%; in [7], 98.3%. The IC50 was 33 µM in [2], 26 µM in [5], greater than 50 µM in data set [8] and greater than 50 µM in [9]. The solubility result in data set [6] is on record as “Soluble”.

Regarding `C=C(C)[C@@H]1CC[C@]2(COC(=O)[C@@H](N)Cc3ccccc3)CC[C@]3(C)[C@H](CC[C@@H]4[C@@]5(C)CC[C@H](OC(=O)[C@@H](N)Cc6ccccc6)C(C)(C)[C@@H]5CC[C@]43C)[C@@H]12`, the Activity is recorded as 1% in [1], 9% in [3], 99% in data set [4] and 91% in data set [7]. In addition, the IC50 in data set [2], in [5], in [8] and in [9] was greater than 50 µM each time. Also, in [6], the solubility result is “Soluble”.

Take `C=C(C)[C@@H]1CC[C@]2(COC(=O)[C@@H](N)CCCCN)CC[C@]3(C)[C@H](CC[C@@H]4[C@@]5(C)CC[C@H](OC(=O)[C@@H](N)CCCCN)C(C)(C)[C@@H]5CC[C@]43C)[C@@H]12`: the Activity in [1] was found to be 99.5%; in data set [3] it was 100%; in data set [4], 0.5%; in data set [7] it was 0%. The IC50 in data set [2] is 4.1 µM; in [5] it was 3.8 µM; in [8], greater than 50 µM; in data set [9], 18 µM. Besides, the solubility result in data set [6] was “Soluble”. For the same compound, in data set [10], the Stability entry is reported as “Stable”.

The record behind these values is ChEMBL document CHEMBL1154018, “Esters of betulin and betulinic acid with amino acids have improved water solubility and are selectively cytotoxic toward cancer cells” (Bioorg Med Chem Lett, 2009).
